± gives the expanded uncertainty stated by the source.

This data set in a line: Molar enthalpy of transition or fusion. As to conditions: Adiabatic calorimetry.

`CCCCn1cc[n+](C)c1.Cc1ccc(S(=O)(=O)[O-])cc1` [1-butyl-3-methylimidazolium tosylate]: the “Molar enthalpy of transition or fusion” value (Crystal 1) is 21.6 ± 0.24 kJ/mol, the “Molar enthalpy of transition or fusion” value (Crystal 2) turned out to be 0.194 ± 0.2 kJ/mol and the “Molar enthalpy of transition or fusion” value (Metastable crystal) was 19.9 ± 0.26 kJ/mol.

The record behind these values is the NIST ThermoML archive (doi:10.1021/je700152c).
